Data: paper PMC5428509, “Irreversible inhibition of BTK kinase by a novel highly selective inhibitor CHMFL-BTK-11 suppresses inflammatory response in rheumatoid arthritis model” (Scientific Reports, 2017)

Assays:
Assay in all cases: biochemical
Set-up in all cases: KinomeScan competition binding panel (DiscoveRx), percent of control at 1 uM
Conditions in all cases: read-out: Percent Control
HIPK4 = HIPK4 (Homo sapiens, UniProt Q8NE63)
Outline: (§1)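 Selectivity profiled across 456 kinases/mutants by KinomeScan binding technology.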

AURKC = AURKC (Homo sapiens, UniProt Q9UQB9)
Outline: as §1

TAK1 = target: T1, TAK1 (Homo sapiens, UniProt O43318)
T1 construct: gene MAP3K7
Outline: as §1

EPHB3 = EPHB3 (Homo sapiens, UniProt P54753)
Outline: as §1

NEK5 = NEK5 (Homo sapiens, UniProt Q6P3R8)
Outline: as §1

PRKCD = PRKCD (Homo sapiens, UniProt Q05655)
Outline: as §1

CDKL3 = CDKL3 (Homo sapiens, UniProt Q8IVW4)
Outline: as §1

RIPK5 = target: T2, RIPK5 (Homo sapiens, UniProt Q6XUX3)
T2 construct: gene DSTYK
Outline: as §1

ASK2 = target: T3, ASK2 (Homo sapiens, UniProt O95382)
T3 construct: gene MAP3K6
Outline: as §1

DYRK2 = DYRK2 (Homo sapiens, UniProt Q92630)
Outline: as §1

RET(V804L) = RET(V804L) (Homo sapiens, UniProt P07949, V804L)
Outline: as §1

BIKE = target: T4, BIKE (Homo sapiens, UniProt Q9NSY1)
T4 construct: gene BMP2K
Outline: as §1

BMX = BMX (Homo sapiens, UniProt P51813)
Outline: as §1

NLK = NLK (Homo sapiens, UniProt Q9UBE8)
Outline: as §1

KIT(A829P) = KIT(A829P) (Homo sapiens, UniProt P10721, A829P)
Outline: as §1

MTOR = MTOR (Homo sapiens, UniProt P42345)
Outline: as §1

CASK = CASK (Homo sapiens, UniProt O14936)
Outline: as §1

MLK3 = target: T5, MLK3 (Homo sapiens, UniProt Q16584)
T5 construct: gene MAP3K11
Outline: as §1

PKN1 = PKN1 (Homo sapiens, UniProt Q16512)
Outline: as §1

KIT(D816V) = KIT(D816V) (Homo sapiens, UniProt P10721, D816V)
Outline: as §1

AKT1 = AKT1 (Homo sapiens, UniProt P31749)
Outline: as §1

KIT(V559D) = KIT(V559D) (Homo sapiens, UniProt P10721, V559D)
Outline: as §1

MAP4K3 = MAP4K3 (Homo sapiens, UniProt Q8IVH8)
Outline: as §1

RAF1 = RAF1 (Homo sapiens, UniProt P04049)
Outline: as §1

SRC = SRC (Homo sapiens, UniProt P12931)
Outline: as §1

RAF1, sequence (P04049 whole entry): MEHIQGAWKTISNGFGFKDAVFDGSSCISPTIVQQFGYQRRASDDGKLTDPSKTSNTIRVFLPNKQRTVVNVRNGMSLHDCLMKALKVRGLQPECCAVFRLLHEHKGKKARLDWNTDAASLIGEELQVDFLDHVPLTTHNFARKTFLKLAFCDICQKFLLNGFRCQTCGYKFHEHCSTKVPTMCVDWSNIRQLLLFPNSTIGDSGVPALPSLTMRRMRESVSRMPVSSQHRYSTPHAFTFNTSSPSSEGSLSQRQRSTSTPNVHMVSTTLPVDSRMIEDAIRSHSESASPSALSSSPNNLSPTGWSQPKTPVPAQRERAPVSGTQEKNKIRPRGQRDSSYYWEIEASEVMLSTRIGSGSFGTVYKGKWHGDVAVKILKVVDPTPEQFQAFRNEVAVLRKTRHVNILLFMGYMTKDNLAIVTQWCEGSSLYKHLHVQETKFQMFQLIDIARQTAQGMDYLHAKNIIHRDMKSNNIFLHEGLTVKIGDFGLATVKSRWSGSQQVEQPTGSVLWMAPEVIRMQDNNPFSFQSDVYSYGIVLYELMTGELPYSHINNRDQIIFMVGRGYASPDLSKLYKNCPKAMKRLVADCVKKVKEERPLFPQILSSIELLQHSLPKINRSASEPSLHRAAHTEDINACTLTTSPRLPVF
RET(V804L), sequence (P07949 whole entry V804L): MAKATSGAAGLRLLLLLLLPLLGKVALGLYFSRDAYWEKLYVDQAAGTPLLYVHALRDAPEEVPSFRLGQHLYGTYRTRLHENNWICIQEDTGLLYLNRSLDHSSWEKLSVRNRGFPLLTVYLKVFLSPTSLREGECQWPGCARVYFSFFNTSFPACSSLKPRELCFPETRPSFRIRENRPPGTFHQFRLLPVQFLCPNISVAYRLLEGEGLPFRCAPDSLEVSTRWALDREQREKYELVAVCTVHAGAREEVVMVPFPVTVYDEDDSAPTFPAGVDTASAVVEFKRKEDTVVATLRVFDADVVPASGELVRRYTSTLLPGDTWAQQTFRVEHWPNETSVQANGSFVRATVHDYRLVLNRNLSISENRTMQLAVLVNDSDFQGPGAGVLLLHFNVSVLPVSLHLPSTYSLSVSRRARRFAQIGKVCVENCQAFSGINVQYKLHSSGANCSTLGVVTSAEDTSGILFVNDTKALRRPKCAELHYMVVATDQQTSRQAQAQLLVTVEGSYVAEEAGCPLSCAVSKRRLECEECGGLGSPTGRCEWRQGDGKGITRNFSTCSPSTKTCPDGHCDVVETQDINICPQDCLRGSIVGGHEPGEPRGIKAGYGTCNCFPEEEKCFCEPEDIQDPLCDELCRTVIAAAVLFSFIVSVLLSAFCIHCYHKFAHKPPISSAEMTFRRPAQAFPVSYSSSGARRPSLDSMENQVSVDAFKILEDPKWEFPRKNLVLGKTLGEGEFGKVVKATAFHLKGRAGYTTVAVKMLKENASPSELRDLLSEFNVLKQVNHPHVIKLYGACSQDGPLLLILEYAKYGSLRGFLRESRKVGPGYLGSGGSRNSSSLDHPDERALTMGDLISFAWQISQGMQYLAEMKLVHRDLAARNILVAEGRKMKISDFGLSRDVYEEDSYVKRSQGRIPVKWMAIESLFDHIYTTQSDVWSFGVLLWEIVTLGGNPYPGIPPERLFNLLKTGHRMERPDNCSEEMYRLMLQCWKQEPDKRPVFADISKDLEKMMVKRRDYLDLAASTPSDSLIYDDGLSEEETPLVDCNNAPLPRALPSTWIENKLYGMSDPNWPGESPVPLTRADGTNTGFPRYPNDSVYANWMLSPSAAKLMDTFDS
NEK5, sequence (Q6P3R8 whole entry): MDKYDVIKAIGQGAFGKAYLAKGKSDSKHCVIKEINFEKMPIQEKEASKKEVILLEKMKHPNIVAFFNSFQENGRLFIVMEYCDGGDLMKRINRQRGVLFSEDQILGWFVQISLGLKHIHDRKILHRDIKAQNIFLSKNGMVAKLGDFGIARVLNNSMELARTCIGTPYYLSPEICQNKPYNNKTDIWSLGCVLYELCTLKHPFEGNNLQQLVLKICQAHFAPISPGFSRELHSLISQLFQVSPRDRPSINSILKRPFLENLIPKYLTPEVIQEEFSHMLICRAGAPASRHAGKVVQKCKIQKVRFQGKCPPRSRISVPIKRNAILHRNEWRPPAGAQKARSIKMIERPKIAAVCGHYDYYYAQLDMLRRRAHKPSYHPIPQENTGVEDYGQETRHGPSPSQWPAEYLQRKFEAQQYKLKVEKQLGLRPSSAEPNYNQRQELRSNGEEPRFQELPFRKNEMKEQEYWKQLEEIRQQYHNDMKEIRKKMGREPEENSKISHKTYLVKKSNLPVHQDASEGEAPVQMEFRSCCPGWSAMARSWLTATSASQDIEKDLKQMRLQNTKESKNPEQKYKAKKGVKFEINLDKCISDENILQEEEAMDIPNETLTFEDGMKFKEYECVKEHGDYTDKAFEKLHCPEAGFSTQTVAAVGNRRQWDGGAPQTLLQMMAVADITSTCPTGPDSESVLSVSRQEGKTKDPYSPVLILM
AURKC, sequence (Q9UQB9 whole entry): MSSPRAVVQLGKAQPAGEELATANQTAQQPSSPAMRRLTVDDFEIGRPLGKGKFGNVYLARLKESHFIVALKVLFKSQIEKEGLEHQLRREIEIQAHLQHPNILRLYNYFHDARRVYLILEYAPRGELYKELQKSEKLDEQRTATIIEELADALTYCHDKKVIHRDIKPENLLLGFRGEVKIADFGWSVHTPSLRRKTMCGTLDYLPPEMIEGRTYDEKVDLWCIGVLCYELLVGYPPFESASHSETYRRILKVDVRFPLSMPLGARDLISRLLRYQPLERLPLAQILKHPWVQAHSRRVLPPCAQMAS
NLK, sequence (Q9UBE8 whole entry): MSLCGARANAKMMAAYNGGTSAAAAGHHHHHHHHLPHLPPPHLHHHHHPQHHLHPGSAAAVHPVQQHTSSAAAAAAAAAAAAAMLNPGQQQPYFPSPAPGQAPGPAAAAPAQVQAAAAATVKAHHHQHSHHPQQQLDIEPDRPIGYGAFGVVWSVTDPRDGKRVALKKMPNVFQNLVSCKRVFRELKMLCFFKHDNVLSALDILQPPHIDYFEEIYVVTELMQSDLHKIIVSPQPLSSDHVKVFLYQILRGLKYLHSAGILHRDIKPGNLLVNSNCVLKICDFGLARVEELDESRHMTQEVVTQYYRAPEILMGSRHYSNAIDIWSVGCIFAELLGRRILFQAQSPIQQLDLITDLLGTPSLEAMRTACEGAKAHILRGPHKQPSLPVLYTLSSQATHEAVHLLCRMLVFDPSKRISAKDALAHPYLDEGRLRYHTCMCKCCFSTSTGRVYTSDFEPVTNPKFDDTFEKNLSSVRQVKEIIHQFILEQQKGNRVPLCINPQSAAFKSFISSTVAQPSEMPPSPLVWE
AKT1, sequence (P31749 whole entry): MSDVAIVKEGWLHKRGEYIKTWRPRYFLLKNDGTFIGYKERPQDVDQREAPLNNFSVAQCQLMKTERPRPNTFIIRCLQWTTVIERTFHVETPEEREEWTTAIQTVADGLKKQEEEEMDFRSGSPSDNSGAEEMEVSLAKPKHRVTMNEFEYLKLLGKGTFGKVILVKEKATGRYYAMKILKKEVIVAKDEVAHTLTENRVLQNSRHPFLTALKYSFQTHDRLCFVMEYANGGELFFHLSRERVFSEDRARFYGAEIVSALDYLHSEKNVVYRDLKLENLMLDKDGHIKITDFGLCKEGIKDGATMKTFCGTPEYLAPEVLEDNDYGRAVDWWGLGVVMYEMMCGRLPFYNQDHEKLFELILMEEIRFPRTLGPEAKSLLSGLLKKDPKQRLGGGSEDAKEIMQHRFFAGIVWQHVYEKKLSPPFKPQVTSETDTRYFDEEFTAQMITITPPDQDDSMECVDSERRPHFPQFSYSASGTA
SRC, sequence (P12931 whole entry): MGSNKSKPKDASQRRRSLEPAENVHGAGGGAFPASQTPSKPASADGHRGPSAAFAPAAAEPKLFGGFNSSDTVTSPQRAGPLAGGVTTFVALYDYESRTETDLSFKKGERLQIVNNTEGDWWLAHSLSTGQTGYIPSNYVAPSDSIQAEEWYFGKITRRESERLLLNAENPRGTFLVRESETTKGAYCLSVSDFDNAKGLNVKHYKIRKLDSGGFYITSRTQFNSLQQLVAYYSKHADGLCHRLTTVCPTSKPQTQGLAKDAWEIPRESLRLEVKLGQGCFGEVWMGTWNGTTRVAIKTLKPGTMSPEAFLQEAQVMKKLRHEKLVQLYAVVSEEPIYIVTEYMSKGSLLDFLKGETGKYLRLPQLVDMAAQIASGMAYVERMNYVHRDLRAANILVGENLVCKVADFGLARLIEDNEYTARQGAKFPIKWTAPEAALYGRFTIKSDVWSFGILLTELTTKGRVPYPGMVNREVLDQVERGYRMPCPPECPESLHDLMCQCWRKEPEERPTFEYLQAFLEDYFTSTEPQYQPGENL
CDKL3, sequence (Q8IVW4 whole entry): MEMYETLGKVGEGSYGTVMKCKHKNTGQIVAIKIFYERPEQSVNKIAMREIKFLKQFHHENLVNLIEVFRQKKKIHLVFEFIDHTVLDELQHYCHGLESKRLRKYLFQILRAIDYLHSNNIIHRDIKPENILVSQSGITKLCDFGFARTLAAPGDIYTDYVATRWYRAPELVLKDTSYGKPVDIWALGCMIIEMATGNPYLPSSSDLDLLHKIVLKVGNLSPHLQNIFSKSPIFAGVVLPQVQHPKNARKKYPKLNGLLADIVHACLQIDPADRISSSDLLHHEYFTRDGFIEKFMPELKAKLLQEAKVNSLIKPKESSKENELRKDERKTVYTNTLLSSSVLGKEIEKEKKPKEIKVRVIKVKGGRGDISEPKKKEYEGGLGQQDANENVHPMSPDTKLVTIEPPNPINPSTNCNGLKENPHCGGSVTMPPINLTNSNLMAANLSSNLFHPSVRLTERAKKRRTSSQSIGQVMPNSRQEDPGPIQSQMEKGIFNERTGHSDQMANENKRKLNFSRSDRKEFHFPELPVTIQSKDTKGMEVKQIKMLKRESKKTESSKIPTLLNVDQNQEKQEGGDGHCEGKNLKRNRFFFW

Structure (SMILES): C=CC(=O)Nc1cc(-n2c(=O)ccc3cnc4ccc(-n5cccn5)cc4c32)ccc1C [CHMFL-BTK-11]
- remaining binding at 1 µM (HIPK4): 94%
- remaining binding at 1 µM (AURKC): 98%
- remaining binding at 1 µM (TAK1): 98%
- remaining binding at 1 µM (EPHB3): 97%
- remaining binding at 1 µM (NEK5): 73%
- remaining binding at 1 µM (PRKCD): 86%
- remaining binding at 1 µM (CDKL3): 90%
- remaining binding at 1 µM (RIPK5): 99%
- remaining binding at 1 µM (ASK2): 100%
- remaining binding at 1 µM (DYRK2): 55%
- remaining binding at 1 µM (RET(V804L)): 97%
- remaining binding at 1 µM (BIKE): 91%
- remaining binding at 1 µM (BMX): 23%
- remaining binding at 1 µM (NLK): 100%
- remaining binding at 1 µM (KIT(A829P)): 98%
- remaining binding at 1 µM (MTOR): 62%
- remaining binding at 1 µM (CASK): 86%
- remaining binding at 1 µM (MLK3): 100%
- remaining binding at 1 µM (PKN1): 100%
- remaining binding at 1 µM (KIT(D816V)): 97%
- remaining binding at 1 µM (AKT1): 96%
- remaining binding at 1 µM (KIT(V559D)): 100%
- remaining binding at 1 µM (MAP4K3): 100%
- remaining binding at 1 µM (RAF1): 100%
- remaining binding at 1 µM (SRC): 98%
